This data set is described as follows: Solubility limit of the natural sweetener in pure solvents (estimated). It counts as physicochemical. Particulars: for Solubility limit in ethyl lactate: pure ethyl lactate; for Solubility limit in glycerol: pure glycerol. The protocol:
As used herein, “solubility at 25° C.” or “solubility at RT” is meant to represent the thermodynamic, equilibrium solubility of a natural sweetener at 25° C. or at RT. […] Subsequently, even once the temperature is brought back to a lower temperature, for example to 25° C., the solid compound may remain in solution for a certain amount of time while being supersaturated. However, this is an apparent solubility due to a non-equilibrium, metastable state with limited shelf-life stability, and therefore is distinguished from thermodynamic solubility at equilibrium. Thermodynamic solubility can, for example, be determined with the so-called shake flask method at a controlled temperature. Alternatively, it can be determined by slowly heating the compound and recording the solubilization temperature after complete dissolution.

For Rebaudioside B [Reb B (95%)], the “Solubility limit in ethyl lactate” value is listed as less than 1% and the “Solubility limit in glycerol” value was “about 16 % wt”.
On the same counts, the results for `C=C1C[C@@]23CC[C@H]4[C@@](C)(CCC[C@@]4(C)C(=O)O[C@@H]4O[C@H](CO)[C@@H](O)[C@H](O)[C@H]4O)[C@@H]2CC[C@]1(O[C@@H]1O[C@H](CO)[C@@H](O)[C@H](O[C@@H]2O[C@H](CO)[C@@H](O)[C@H](O)[C@H]2O)[C@H]1O[C@@H]1O[C@H](CO)[C@@H](O)[C@H](O)[C@H]1O)C3` [Reb A (99.5%), Rebaudioside A] are less than 0.3% and “about 2 % wt”.
In the same order, the values of `C=C1C[C@@]23CC[C@H]4[C@@](C)(CCC[C@@]4(C)C(=O)O[C@@H]4O[C@H](CO)[C@@H](O)[C@H](O[C@@H]5O[C@H](CO)[C@@H](O)[C@H](O)[C@H]5O)[C@H]4O[C@@H]4O[C@H](CO)[C@@H](O)[C@H](O)[C@H]4O)[C@@H]2CC[C@]1(O[C@@H]1O[C@H](CO)[C@@H](O)[C@H](O[C@@H]2O[C@H](CO)[C@@H](O)[C@H](O)[C@H]2O)[C@H]1O[C@@H]1O[C@H](CO)[C@@H](O)[C@H](O)[C@H]1O)C3` [Reb M (95%), Rebaudioside M] are less than 0.7% and “about 9 % wt”.

The record behind these values is US20260206809A1, “NATURAL SWEETENER COMPOSITIONS CONTAINING ALKYL LACTATES AND USES THEREOF” (Firmenich SA, priority 2022, published 2026).
